Here are results for 2 compounds from publication PMC4310329, “The length of a lantibiotic hinge region has profound influence on antimicrobial activity and host specificity” (Frontiers in Microbiology, 2015).

One test concerns M. luteus. The test can be described thus: Agar well diffusion assay. The class given is cell-based, Micrococcus luteus. As to conditions: 20 °C; estimated from halo diameter by nisin standard curve, relative to wt. The protocol:
(§1) L. lactis strains were cultured in M17 broth supplemented with 0.5% (w/v) glucose (GM17) or GM17 agar for genetic manipulation or in minimal expression medium (MEM) for protein expression at 30°C (Rink et al., [2005]). E. faecalis, S. aureus, S. pneumonia, and L. monocytogenes were grown in GM17 at 37°C or GM17 agar at different temperatures for agar diffusion assay. M. luteus was grown in Luria-Bertani broth shaken (200 rpm) at 30°C or LB agar at 20°C for agar diffusion assay. Bacillus strains were cultured in Brain Heart Infusion (BHI) shaken (200 rpm) or BHI agar at different temperatures for agar diffusion assay.
(§2) For the agar well diffusion assay, the same cultures as in the MIC value test were used and diluted 200 times with solid media. Identical sizes of wells (7.5 mm diameter) were made and 2 μg of hinge region analogs dissolved in 20 μl 0.05% acetic acid were added. The plates were incubated at different temperatures for at least 1 day until apparent halos appeared. For activity test at low temperature, the indicators were diluted in the same way but poured into smaller plates (52 mm diameter). The plates were incubated at 4°C overnight before the peptides were added. B. sporothermodurans IC4 and B. cereus 4153 were first incubated with the peptides at 4°C for 2 weeks then moved to 30°C and incubated overnight. The diameters of the halos were measured.
(§3) The antimicrobial activity of the hinge region analogs in solid media were tested by an agar well diffusion assay. The diameters of the halos were measured and the residual activity of the analogs were estimated according to the formula of the relationship between the concentration of nisin and the sizes of halos. We made use of the fact that the size of the halo is directly related to the log of nisin concentration. Of course this is an estimate of activity of the variants because any changes in diffusion of the variant bacteriocin or growth rates of indicator bacteria during the assay could also affect the size of the halo. (Table 5 and Supplementary Figure 1). The plates were shown in supplementary data (Supplementary Figures 2–8). […] And against L. lactis at 20°C, the inhibition zone was larger than nisin. […] The M. luteus grows quite fast at room temperature and only the +2 variant retained 55% of the activity of nisin. […]
(§4) To evaluate the activity of nisin on the agar plate, an agar well diffusion assay with gradient of nisin against Lactococcus lactis ( with two plasmids) was performed ( Supplementary Figur e 1 A). The diameter of the halos were measured (Supplementary Figure 1B). […]
(§5) the concentration of nisin is in liner relationship with diameter of the halos ( Supplementary Fi g u re 1C). According to the formula (1) , the relative activity of the peptides compared to nisin can be calculated b y the formula ( 2) .
(§6) Supplementary Figure 1. Relationship between concentration of nisin and diameter of the halos. (A) Agar well diffusion assay. Gradient concentration of nisin were made and dissolved in 30µl 0.05% acetic acid. Lactococcus lactis ( with two plasmids) was cultured overnight and diluted 250 times with GM17 agar before added to the plate. The final concentration of the cells was about 2×10^6 cells/milliliter. The plate was incubated for 1 da y. Concentrations of nisin were labeled. (B) log10 of the concentrati ons and diameters of the halo. (C) A linear curve w as made betw een t he diameters of the halo and log10s of the concentration of nisin. […]

For a further test, the system named is E. faecalis VE14089. The test can be described thus: Agar well diffusion assay. The class given is cell-based, Enterococcus faecalis. As to conditions: estimated from halo diameter by nisin standard curve, relative to wt. The protocol: as §1, §2, §3, §4, §5
(§7) Supplementary Figure 1. Relationship between concentration of nisin and diameter of the halos. (A) Agar well diffusion assay. Gradient concentration of nisin were made and dissolved in 30µl 0.05% acetic acid. Lactococcus lactis ( with two plasmids) was cultured overnight and diluted 250 times with GM17 agar before added to the plate. The final concentration of the cells was about 2×10^6 cells/milliliter. The plate was incubated for 1 da y. Concentrations of nisin were labeled. (B) log10 of the concentrati ons and diameters of the halo. (C) A linear curve w as made betw een t he diameters of the halo and log10s of the concentration of nisin.
(§8) (1 picture or pasted object on this page, not shown here)
(§9) Last Name a uthor 1 et al. Running Title
(§10) C = concentration of nisin d° = diameter of the halo of wild t ype […]

In a further test the test system is L. lactis MG1363. The test can be described thus: Agar well diffusion assay. The class given is cell-based, Lactococcus lactis. As to conditions: relative to wt. The protocol: as §1, §2, §3, §4, §5, §7, §8, §9, §10
Background: A growth-free zone around the sample is the usual read-out of agar diffusion tests.

For a further test, the system named is S. aureus. The test can be described thus: Agar well diffusion assay. As to conditions: 20 °C; estimated from halo diameter by nisin standard curve, relative to wt. The format is cell-based, Staphylococcus aureus. The protocol: as §1, §2, §3, §4, §5, §6
The test system of the next test is L. monocytogenes. The test can be described thus: Agar well diffusion assay. The format is cell-based, Listeria monocytogenes. As to conditions: estimated from halo diameter by nisin standard curve, relative to wt. The protocol:
as §1, §2, §3, §4, §5, §7, §8, §9, §10

Another test relates to Staphylococcus aureus. The test can be described thus: MIC in liquid culture. As to conditions: MIC value of nisin divided by that of the analog. The class given is cell-based. The protocol:
as §1
(§11) The indicator strains were cultured until OD (600 nm) reached 0.5. Before MIC value test, the culture was diluted 1000 times to make the concentration of cells around 5 × 10^5 per milliliter. The test was performed using a temperature controlled plate reader [Tecan200 (Tecan Group AG)] and 96 well plate (Greiner Bio-one). 180 μl indicator strain culture mixed with 20 μl hinge region analogs with final concentration from 0.031 μg/ml–32 μg/ml was incubated at 30°C or 37°C for 18 h. OD (600 nm) was checked every 30 min. For aerobic strains, 2 min of shaking was performed before every check. The concentration of peptide without observed growth of indicator strains was considered as the MIC value.

The test system of test [1] is Streptococcus pneumoniae R6. The test can be described thus: MIC in liquid culture. As to conditions: MIC value of nisin divided by that of the analog. The class given is cell-based. The protocol:
as §1, §11

For a further test, the system named is Listeria monocytogenes. The test can be described thus: MIC in liquid culture. The format is cell-based. As to conditions: MIC value of nisin divided by that of the analog. The protocol:
as §1, §11

In a further test the test system is Bacillus cereus 4153. The test can be described thus: MIC in liquid culture. As to conditions: MIC value of nisin divided by that of the analog. The class given is cell-based. The protocol: as §1, §11
For test [2], the system named is Bacillus cereus (L′29) 16. The test can be described thus: MIC in liquid culture. As to conditions: MIC value of nisin divided by that of the analog. The format is cell-based. The protocol:
as §1, §11

Another test has as its system Bacillus cereus 4147. The test can be described thus: MIC in liquid culture. The format is cell-based. As to conditions: MIC value of nisin divided by that of the analog. The protocol: as §1, §11
The subject of a further test is Micrococcus luteus. The test can be described thus: MIC in liquid culture. The class given is cell-based. As to conditions: MIC value of nisin divided by that of the analog. The protocol:
as §1, §11

Test [3] relates to Lactococcus lactis MG1363. The test can be described thus: MIC in liquid culture. The format is cell-based. As to conditions: MIC value of nisin divided by that of the analog. The protocol: as §1, §11
Test [4] concerns Bacillus sporothermodurans IC4. The test can be described thus: MIC in liquid culture. The format is cell-based. As to conditions: MIC value of nisin divided by that of the analog. The protocol: as §1, §11
In test [5] the test system is Enterococcus faecalis VE14089. The test can be described thus: MIC in liquid culture. As to conditions: MIC value of nisin divided by that of the analog. The class given is cell-based. The protocol:
as §1, §11

Setting [6] is: 20 °C, estimated from halo diameter by nisin standard curve (halo diameter vs log of nisin concentration).

As for `C=C(NC(=O)[C@@H](NC(=O)[C@H](Cc1c[nH]cn1)NC(=O)[C@@H](NC(=O)[C@H](CO)NC(=O)[C@@H]1CS[C@@H](C)[C@H]2NC(=O)[C@H](C)NC(=O)[C@H](NC(=O)[C@H](CCCCN)NC(=O)[C@H](CCSC)NC(=O)[C@H](CC(C)C)NC(=O)[C@H](CC(N)=O)NC(=O)[C@@H]3CS[C@@H](C)[C@@H](NC(=O)[C@H](CCCCN)NC(=O)[C@@H]4CS[C@@H](C)[C@@H](NC(=O)[C@@H]5CSC[C@@H](NC(=O)/C(=C/C)NC(=O)[C@@H](N)[C@@H](C)CC)C(=O)N[C@@H]([C@@H](C)CC)C(=O)NC(=C)C(=O)N[C@@H](CC(C)C)C(=O)N5)C(=O)N5CCC[C@H]5C(=O)NCC(=O)N4)C(=O)NCC(=O)N[C@@H](C)C(=O)N[C@@H](CC(C)C)C(=O)N[C@@H](CCSC)C(=O)NCC(=O)N3)[C@H](C)SC[C@H](NC2=O)C(=O)N[C@@H](Cc2c[nH]cn2)C(=O)N1)[C@@H](C)CC)C(C)C)C(=O)N[C@@H](CCCCN)C(=O)O` [+1], the Residual activity is 9% with M. luteus; 72% in the test on E. faecalis VE14089 (20 °C); 82% with E. faecalis VE14089 (37 °C); 122% with L. lactis MG1363 (setting [6]); 27% in the test on S. aureus; 72% in the test on L. monocytogenes (20 °C). The “Residual activity of variants compared to nisin” value in the test on Staphylococcus aureus is listed as 6%; in [1], 17%; with Listeria monocytogenes, 25%; with Bacillus cereus 4153, 25%; in test [2], 25%; in the test on Bacillus cereus 4147, 25%. Moreover, the “Residual activity of variants compared to nisin” value (in the test with Micrococcus luteus; in test [3]) was 25% in each case.

`C=C(NC(=O)[C@@H](NC(=O)[C@H](Cc1c[nH]cn1)NC(=O)[C@@H](NC(=O)[C@H](CO)NC(=O)[C@@H]1CS[C@@H](C)[C@H]2NC(=O)[C@H](C)NC(=O)[C@H](NC(=O)[C@H](CC(N)=O)NC(=O)[C@@H]3CS[C@@H](C)[C@@H](NC(=O)[C@H](CCCCN)NC(=O)[C@@H]4CS[C@@H](C)[C@@H](NC(=O)[C@@H]5CSC[C@@H](NC(=O)/C(=C/C)NC(=O)[C@@H](N)[C@@H](C)CC)C(=O)N[C@@H]([C@@H](C)CC)C(=O)NC(=C)C(=O)N[C@@H](CC(C)C)C(=O)N5)C(=O)N5CCC[C@H]5C(=O)NCC(=O)N4)C(=O)NCC(=O)N[C@@H](C)C(=O)N[C@@H](CC(C)C)C(=O)N[C@@H](CCSC)C(=O)NCC(=O)N3)[C@H](C)SC[C@H](NC2=O)C(=O)N[C@@H](Cc2c[nH]cn2)C(=O)N1)[C@@H](C)CC)C(C)C)C(=O)N[C@@H](CCCCN)C(=O)O` [−2]: the Residual activity in the test on M. luteus is 0%; in the test with E. faecalis VE14089 (20 °C), 36%; with E. faecalis VE14089 (30 °C), 77%; with E. faecalis VE14089 (37 °C), 76%; in the test on L. lactis MG1363 (setting [6]), 120%; in the test on L. lactis MG1363 (30 °C, estimated from halo diameter by nisin standard curve), 91%. Further, the results for the Residual activity with S. aureus, with L. monocytogenes (20 °C) and in the test with L. monocytogenes (30 °C) were 16%, 82% and 76%, respectively. For the same compound, the “Residual activity of variants compared to nisin” value is 13% in [4]; below 3% in the test with Staphylococcus aureus; 13% in test [1]; below 25% in the test on Listeria monocytogenes; below 13% in the test on Bacillus cereus 4153; below 13% in test [2]. Besides, the “Residual activity of variants compared to nisin” value in the test with Bacillus cereus 4147 is on record as below 13%; in the test with Micrococcus luteus, below 25%; in test [5], below 6%; in test [3], 6%.
